Measured values taken from patent US11613558B2, “Peptides and pharmaceutical compositions for treating eye diseases” (Yuyu Pharma, Inc., priority 2018, dated 2023).
Square brackets hold non-standard residues; d marks the D form. Peptide text beside a SMILES is read from it. ξ: configuration not given here. Nva(4-oxo) = CC(=O)C[C@H](N)C(=O)O; Hyp = O=C(O)[C@@H]1C[C@@H](O)CN1; Thr(3ξ) = CC(O)[C@H](N)C(=O)O; hSer = N[C@@H](CCO)C(=O)O; Sar = CNCC(=O)O

Key:
[1] = system: rats with dry eye syndrome (extraorbital lacrimal gland excision, ELGE); assay: Amount of tear secretion (Schirmer test, cobalt chloride paper) in ELGE rats with dry eye syndrome; format: in vivo, rat; settings: for Tear Volumes, Day 7 / Tear Volumes, Day 14: ELGE rats, 3 mg/ml, 5 μl/eye twice daily; for Tear Volumes, Day 7: day 7 of administration; for Tear Volumes, Day 14: day 14 of administration; for Change in amount of tear secretion as compared with the ELGE control group: 3% solution as printed, after administration for 14 days
From the text: (§1) In order to evaluate the eye protection effect on dry eye syndrome by YDE-001 to YDE-028 prepared in Example 1, a total of 320 Sprague-Dawley-type male rats (OrientBio, Seungnam, Korea) were adapted for 7 days. Thereafter, dry eye syndrome was induced in 264 test rats through extraorbital lacrimal gland excision (hereinafter, ELGE). 8 test rats without the eye abnormality were subjected to a sham operation as a control group.
(§2) The rat was systemically anesthetized by inhaling a mixed gas of 2% to 3% of isoflurane (Hana Pharm. Co., Hwasung, Korea), 70% of N2O, and 28.6% of O2 using a rodent anesthesia machine (Surgivet, Waukesha, Wis., USA) and a ventilator (Model 687, Harvard Apparatus, Cambridge, UK). Thereafter, the extraorbital lacrimal gland located in the subdermal area above the masseter muscle and […] was excised through a transverse incision in a size of 10 mm on the anterior part of the left ear tragus. The skin was sutured by a general method. […] After 6 days from the ELGE operation, it was checked through the Schirmer test by measuring the amount of tear secretion whether dry eye syndrome had been induced. Meanwhile, each rat of the control group with the sham operation was checked for the presence and location of the extraorbital lacrimal gland through a skin incision, and the skin was then sutured without the excision thereof (FIG. 4).
(§3) In addition, in order to evaluate the eye protection effect on dry eye syndrome by YDE-029 to YDE-043 prepared in Example 1, a total of 200 Sprague-Dawley-type male rats (OrientBio, Seungnam, Korea) were adapted for 7 days. Dry eye syndrome was induced in 165 test rats through the ELGE. 8 test rats without the eye abnormality were subjected to the sham operation as a control group. The ELGE was carried out as described above.
(§4) For YDE-001 to YDE-028, YY-102 and the 28 YDE-series were each dissolved in physiological saline at a concentration of 3 mg/ml and administered at a dose of 5 μl/eye at 9:30 am and 3:30 pm daily for 14 days after 7 days from the ELGE operation for a total of 28 times. The DS solution was dissolved in physiological saline at a concentration of 30 mg/ml and administered at a dose of […] twice a day for 14 days after 7 days from the ELGE operation for a total of 28 times. For the sham control and the ELGE control groups, the same stimulation as the administration was applied. In order to prevent excessive eye dryness, the same volume of physiological saline was applied in the same manner in place of the test substances.
as §4, with “Further, for YDE-029 to YDE-043,” for “For YDE-001 to YDE-028,”, “YDE-029 to YDE-043, YY-102 and” for “YDE-001 to YDE-028, YY-102 and”, “and the 15 YDE-series were” for “and the 28 YDE-series were”, “the test substances (FIG. 7).” for “the test substances.”
After 6 days from the ELGE surgery, the changes in the amount of tear secretion were measured at day 7 and day 14 after the administration of YDE-001 to YDE-043. The amount of tear secretion was measured by the […] travel distance of tears absorbed by cobalt chloride paper in a size of 1×15 mm (Toyo Roshi Kaisha, Japan).
The cobalt chloride paper was placed in the lateral canthus of a rat for 60 seconds to absorb tears (FIG. 9). The length of the area absorbed from the corner of the cobalt chloride paper was measured with an electronic digital caliper (Mytutoyo, Tokyo, Japan) (FIG. 8).

[2] = system: cornea of rats with dry eye syndrome (ELGE); assay: Corneal permeability of fluorescent dye (corneal damage) in ELGE rats with dry eye syndrome; format: in vivo, rat; settings: 5 μl/eye twice daily, day 14
From the text: as §1, §2, §3, §4
as §4, with “Further, for YDE-029 to YDE-043,” for “For YDE-001 to YDE-028,”, “YDE-029 to YDE-043, YY-102 and” for “YDE-001 to YDE-028, YY-102 and”, “and the 15 YDE-series were” for “and the 28 YDE-series were”, “the test substances (FIG. 7).” for “the test substances.”
After YDE-001 to YDE-028 were each administered to the eyes […], the changes in the corneal permeability were checked.
In order to measure the corneal permeability, Zolethyl 50™ (Virbac Lab., Carros, France), an animal anesthetic, was intraperitoneally injected at a dose of 25 mg/kg. Thereafter, saline containing a 1% (v/v) fluorescent solution (fluorescein sodium salt, Tokyo Kasei Kogyo Co., Tokyo, Japan) was applied to the eyes at a dose of 5 μl/eye. The eyes thus treated were closed and fixed with a tape. After 1 hour, the remaining fluorescent solution was removed using a cotton swab (FIG. 12). […]

[3] = Stability in aqueous solution under long-term storage conditions (related substances); format: physicochemical; settings: 25° C., 75% RH
Procedure: In order to confirm the stability of each test substance in an aqueous solution, […] of each sample was dissolved in 1 ml of water to a concentration of 1 mg/ml, which was then charged to a glass vial, plugged with a rubber cap, sealed with an aluminum cap, and stored under long-term storage conditions (25° C., 75% RH). The stability of the test substance was evaluated by measuring the amount of related substances at the time of one week, two weeks, four weeks, eight weeks, and twelve weeks under the long-term storage conditions.

[4] = Table 4, study of YDE-001 to YDE-028
[5] = Table 6, study of YDE-001 to YDE-028, 3 mg/ml
[6] = Table 5, study of YDE-029 to YDE-043
[7] = Table 7, study of YDE-029 to YDE-043, 3 mg/ml

SMILES | Tear Volumes, Day 7 [1, 4] [mm^3] | Tear Volumes, Day 14 [1, 4] [mm^3] | Permeability of fluorescent dye [2, 5] [%] | Amount of related substances (after 12 weeks) [3] [%] | Change in amount of tear secretion as compared with the ELGE control group ([1]; study of YDE-001 to YDE-028) | Tear Volumes, Day 7 [1, 6] [mm^3] | Tear Volumes, Day 14 [1, 6] [mm^3] | Permeability of fluorescent dye [2, 7] [%] | Change in amount of tear secretion as compared with the ELGE control group ([1]; study of YDE-029 to YDE-043)
CC(C)C[C@H](NC(=O)[C@H](CO)NC(=O)[C@H](CC(=O)O)NC(=O)[C@H](CCC(N)=O)NC(=O)CNC(=O)[C@@H]1C[C@@H](O)CN1)C(=O)N[C@@H](C)C(=O)NCC(=O)N1CCC[C@H]1C(=O)N[C@@H](CCCCN)C(=O)O [YDE-023] (H-[Hyp]GQDSLAGPK-OH) | 5.32 ± 2.30 | 5.78 ± 2.23 | 26.51 ± 8.18 | 30.66 | – | – | – | – | –
CC(C)C[C@H](NC(=O)CNC(=O)[C@H](Cc1c[nH]c2ccccc12)NC(=O)[C@H](CCC(N)=O)NC(=O)CNC(=O)[C@@H]1C[C@@H](O)CN1)C(=O)N[C@@H](C)C(=O)NCC(=O)N1CCC[C@H]1C(=O)N[C@@H](CCCCN)C(=O)O [YDE-014] (H-[Hyp]GQWGLAGPK-OH) | 3.81 ± 1.21 | 5.62 ± 1.85 | 31.15 ± 10.87 | 6.72 | – | – | – | – | –
CC(C)C[C@H](NC(=O)[C@@H](NC(=O)[C@H](CC(=O)O)NC(=O)[C@H](CCC(N)=O)NC(=O)CNC(=O)[C@@H]1C[C@@H](O)CN1)C(C)O)C(=O)N[C@@H](C)C(=O)NCC(=O)N1CCC[C@H]1C(=O)N[C@@H](CCCCN)C(=O)O (some centres unmarked) [YDE-024] (H-[Hyp]GQD[Thr(3ξ)]LAGPK-OH) | 3.85 ± 1.30 | 5.72 ± 1.36 | 30.63 ± 10.41 | 20.59 | – | – | – | – | –
CNC(=O)C[C@H](NC(=O)[C@H](CCC(N)=O)NC(=O)CNC(=O)[C@@H]1C[C@@H](O)CN1)C(=O)NCC(=O)N[C@@H](CC(C)C)C(=O)N[C@@H](C)C(=O)NCC(=O)N1CCC[C@H]1C(=O)N[C@@H](CCCCN)C(=O)O [YDE-028] (H-[Hyp]GQD(NHMe)GLAGPK-OH) | 4.04 ± 0.99 | 4.73 ± 1.18 | 41.17 ± 10.25 | 1.15 | did not show any significant changes | – | – | – | –
CC(C)C[C@H](NC(=O)[C@H](Cc1ccccc1)NC(=O)[C@H](CC(=O)O)NC(=O)[C@H](CCC(N)=O)NC(=O)CNC(=O)[C@@H]1C[C@@H](O)CN1)C(=O)N[C@@H](C)C(=O)NCC(=O)N1CCC[C@H]1C(=O)N[C@@H](CCCCN)C(=O)O [YDE-019] (H-[Hyp]GQDFLAGPK-OH) | 4.84 ± 1.39 | 4.52 ± 1.07 | 40.39 ± 12.57 | 13.43 | did not show any significant changes | – | – | – | –
CC(C)C[C@H](NC(=O)[C@H](Cc1ccc(O)cc1)NC(=O)[C@H](CC(=O)O)NC(=O)[C@H](CCC(N)=O)NC(=O)CNC(=O)[C@@H]1C[C@@H](O)CN1)C(=O)N[C@@H](C)C(=O)NCC(=O)N1CCC[C@H]1C(=O)N[C@@H](CCCCN)C(=O)O [YDE-020] (H-[Hyp]GQDYLAGPK-OH) | 3.41 ± 1.47 | 4.20 ± 1.35 | 47.84 ± 13.47 | 21.54 | did not show any significant changes | – | – | – | –
CC(C)C[C@H](NC(=O)CNC(=O)[C@H](CC(C)C)NC(=O)[C@H](CCC(N)=O)NC(=O)CNC(=O)[C@@H]1C[C@@H](O)CN1)C(=O)N[C@@H](C)C(=O)NCC(=O)N1CCC[C@H]1C(=O)N[C@@H](CCC(=O)O)C(=O)O [YDE-031] (H-[Hyp]GQLGLAGPE-OH) | – | – | – | 34.82 | – | 5.63 ± 1.97 | 5.91 ± 0.85 | 33.35 ± 11.01 | –
CC(C)C[C@H](NC(=O)CNC(=O)[C@H](CCO)NC(=O)[C@H](CCC(N)=O)NC(=O)CNC(=O)[C@@H]1C[C@@H](O)CN1)C(=O)N[C@@H](C)C(=O)NCC(=O)N1CCC[C@H]1C(=O)N[C@@H](CCCCN)C(=O)O [YDE-026] (H-[Hyp]GQ[hSer]GLAGPK-OH) | 4.32 ± 1.47 | 6.01 ± 1.83 | 22.63 ± 11.23 | 10.15 | – | – | – | – | –
CC(=O)C[C@H](NC(=O)[C@H](CCC(N)=O)NC(=O)CNC(=O)[C@@H]1C[C@@H](O)CN1)C(=O)N(C)CC(=O)N[C@@H](CC(C)C)C(=O)N[C@@H](C)C(=O)NCC(=O)N1CCC[C@H]1C(=O)N[C@@H](CCCCN)C(=O)O [YDE-025] (H-[Hyp]GQ[Nva(4-oxo)][Sar]LAGPK-OH) | 3.21 ± 0.72 | 4.72 ± 2.19 | 47.10 ± 11.45 | 5.17 | did not show any significant changes | – | – | – | –
CC(C)C[C@H](NC(=O)CNC(=O)[C@H](CC(C)C)NC(=O)[C@H](CCC(N)=O)NC(=O)CNC(=O)[C@@H]1C[C@@H](O)CN1)C(=O)N[C@@H](C)C(=O)NCC(=O)N1CCC[C@H]1C(=O)N[C@@H](CCC(N)=O)C(=O)O [YDE-032] (H-[Hyp]GQLGLAGPQ-OH) | – | – | – | 6.16 | – | 5.58 ± 0.80 | 5.03 ± 0.93 | 58.90 ± 19.81 | did not show any significant changes
CC(C)C[C@H](NC(=O)CNC(=O)[C@H](CC(C)C)NC(=O)[C@H](CCC(N)=O)NC(=O)CNC(=O)[C@@H]1C[C@@H](O)CN1)C(=O)O [YDE-042] (H-[Hyp]GQLGL-OH) | – | – | – | 3.98 | – | 6.30 ± 1.08 | 7.97 ± 1.48 | 20.72 ± 11.37 | –
CC(C)C[C@H](NC(=O)CNC(=O)[C@H](CC(N)=O)NC(=O)[C@H](CCC(N)=O)NC(=O)CNC(=O)[C@@H]1C[C@@H](O)CN1)C(=O)N[C@@H](C)C(=O)NCC(=O)N1CCC[C@H]1C(=O)N[C@@H](CCCCN)C(=O)O [YDE-002] (H-[Hyp]GQNGLAGPK-OH) | 3.84 ± 1.16 | 5.01 ± 1.67 | 38.26 ± 11.25 | 4.93 | – | – | – | – | –
